Laboratory results from US9458198B1, “Cyclic peptide-based NPR-B agonists” (priority 2009, dated 2016).
Like-named read-outs stand apart in the source and are kept apart here. Where a SMILES comes first, the peptide text is derived from it. Bridges are numbered along the chain shown (N, C = ends). [ ]: non-standard residue; d: D form.

Target: T1, NPR-B (Homo sapiens, UniProt P20594)
T1 construct: a functional assay using endogenously NPR-B expressing GTM-3 cells; endogenous in cells; host or cells: GTM-3 (transformed human trabecular meshwork cells)
T1 sequence (P20594 23-1047): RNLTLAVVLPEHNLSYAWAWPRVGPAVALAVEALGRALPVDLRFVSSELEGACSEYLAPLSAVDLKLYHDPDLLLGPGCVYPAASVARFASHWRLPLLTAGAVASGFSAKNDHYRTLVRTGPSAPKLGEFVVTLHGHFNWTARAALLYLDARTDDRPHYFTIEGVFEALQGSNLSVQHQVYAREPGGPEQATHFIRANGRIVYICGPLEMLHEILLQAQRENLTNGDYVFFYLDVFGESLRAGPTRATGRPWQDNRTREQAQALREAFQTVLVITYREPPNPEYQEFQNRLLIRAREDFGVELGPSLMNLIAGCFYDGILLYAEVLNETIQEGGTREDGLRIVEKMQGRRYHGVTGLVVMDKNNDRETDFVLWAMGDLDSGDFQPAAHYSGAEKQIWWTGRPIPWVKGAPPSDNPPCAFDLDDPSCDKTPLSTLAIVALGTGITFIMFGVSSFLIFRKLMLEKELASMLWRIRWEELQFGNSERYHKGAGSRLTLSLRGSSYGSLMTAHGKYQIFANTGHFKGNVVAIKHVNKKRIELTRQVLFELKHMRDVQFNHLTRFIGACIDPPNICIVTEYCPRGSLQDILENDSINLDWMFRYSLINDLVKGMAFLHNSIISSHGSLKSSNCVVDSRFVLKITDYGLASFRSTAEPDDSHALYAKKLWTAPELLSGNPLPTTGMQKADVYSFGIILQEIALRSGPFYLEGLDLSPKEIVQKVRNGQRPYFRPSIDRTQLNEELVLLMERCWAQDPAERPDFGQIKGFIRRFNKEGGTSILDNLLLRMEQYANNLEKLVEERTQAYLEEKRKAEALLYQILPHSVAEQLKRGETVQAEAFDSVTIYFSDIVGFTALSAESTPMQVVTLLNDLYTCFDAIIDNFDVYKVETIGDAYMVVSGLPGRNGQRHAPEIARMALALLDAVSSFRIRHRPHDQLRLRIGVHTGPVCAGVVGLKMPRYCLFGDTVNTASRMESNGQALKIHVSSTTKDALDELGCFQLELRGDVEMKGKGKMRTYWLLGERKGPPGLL
Experiment: NPR-B induced production of cyclic GMP in GTM-3 cells
Type: cell-based
Conditions: GTM-3 cells, group needs both EC50 and Emax criteria, checked A then B then C
Protocol: The efficacy and potency of compounds to activate NPR-B were evaluated in a functional assay using endogenously NPR-B expressing GTM-3 cells (Pang et al. 1994, Curr Eye Res 13:51-63). In this assay the dose dependent production of cyclic GMP (cGMP) is determined and Emax (maximum activation) and EC50 values are calculated.
The cell culture medium is aspirated and each well is washed with 200 μl DMEM/Ham's F12=Medium (Gibco). Then, 200 μl Medium supplemented with 1 mM IBMX (3-Isobutyl-1-methyl-xanthin, Sigma) is added to each well and incubated for 15 min. at room temperature.
Final compound concentrations are in the range from 45 μM to 20 nM.

[1] = read-out: Activity (group): NPR-B activation, EC50 and Emax (CNP = 100%)

| SMILES | EC50 [1] | EC50 (Activity (group): NPR-B activation, EC50 and Emax (CNP = 100%)) |
| --- | --- | --- |
| CC[C@H](C)[C@@H]1NC(=O)[C@H](CCCNC(=N)N)NC(=O)[C@H](CC(=O)O)NC(=O)[C@H](CC(C)C)NC(=O)[C@H](CCCCN)NC(=O)[C@H](CC(C)C)NC(=O)CNC(=O)[C@H](Cc2ccccc2)NC(=O)[C@H](Cc2c[nH]cn2)NC(=O)[C@@H](NC(=O)[C@@H](N)CCSC)CSSC[C@@H](C(=O)N[C@@H](CC(C)C)C(=O)N[C@@H](CCCNC(=N)N)C(N)=O)NC(=O)[C@H](CO)NC1=O [compound 23] (H-MCHFGLKLDRISCLR-NH2; disulfide 2-13) | < 5 µM | – |
| CC[C@H](C)[C@@H]1NC(=O)[C@H](CCCNC(=N)N)NC(=O)[C@H](CC(=O)O)NC(=O)[C@H](CC(C)C)NC(=O)[C@H](CCCCN)NC(=O)[C@H](CC(C)C)NC(=O)CNC(=O)[C@H](Cc2ccccc2)NC(=O)[C@H](Cc2c[nH]cn2)NC(=O)[C@@H](NC(=O)[C@@H](N)CCSC)CSSC[C@@H](C(=O)N[C@@H](CO)C(=O)N[C@@H](CCCNC(=N)N)C(N)=O)NC(=O)[C@H](CO)NC1=O [compound 24] (H-MCHFGLKLDRISCSR-NH2; disulfide 2-13) | < 5 µM | – |
| CC[C@H](C)[C@@H]1NC(=O)[C@H](CCCNC(=N)N)NC(=O)[C@H](CC(=O)O)NC(=O)[C@H](CC(C)C)NC(=O)[C@H](CCCCN)NC(=O)[C@H](CC(C)C)NC(=O)CNC(=O)[C@H](Cc2ccccc2)NC(=O)[C@H](Cc2c[nH]cn2)NC(=O)[C@@H](NC(=O)[C@@H](N)CCSC)CSSC[C@@H](C(=O)N[C@@H](Cc2c[nH]cn2)C(=O)N[C@@H](CCCNC(=N)N)C(N)=O)NC(=O)[C@H](CO)NC1=O [compound 25] (H-MCHFGLKLDRISCHR-NH2; disulfide 2-13) | < 15 µM | – |
| CC[C@H](C)[C@@H]1NC(=O)[C@H](CCCNC(=N)N)NC(=O)[C@H](CC(=O)O)NC(=O)[C@H](CC(C)C)NC(=O)[C@H](CCCCN)NC(=O)[C@H](CC(C)C)NC(=O)CNC(=O)[C@H](Cc2ccccc2)NC(=O)[C@H](Cc2c[nH]cn2)NC(=O)[C@@H](NC(=O)[C@@H](N)CCSC)CSSC[C@@H](C(=O)N[C@@H](Cc2ccc(O)cc2)C(=O)N[C@@H](CO)C(N)=O)NC(=O)[C@H](CO)NC1=O [compound 26] (H-MCHFGLKLDRISCYS-NH2; disulfide 2-13) | < 15 µM | – |
| CC[C@H](C)[C@@H]1NC(=O)[C@H](CCCNC(=N)N)NC(=O)[C@H](CC(=O)O)NC(=O)[C@H](CC(C)C)NC(=O)[C@H](CCCCN)NC(=O)[C@H](CC(C)C)NC(=O)CNC(=O)[C@H](Cc2ccccc2)NC(=O)[C@H](Cc2c[nH]cn2)NC(=O)[C@@H](NC(=O)[C@@H](N)CCSC)CSSC[C@@H](C(=O)N[C@@H](Cc2ccc(O)cc2)C(=O)N[C@@H](CC(N)=O)C(N)=O)NC(=O)[C@H](CO)NC1=O [compound 27] (H-MCHFGLKLDRISCYN-NH2; disulfide 2-13) | < 5 µM | – |
| CC[C@H](C)[C@@H]1NC(=O)[C@H](CCCNC(=N)N)NC(=O)[C@H](CC(=O)O)NC(=O)[C@H](CC(C)C)NC(=O)[C@H](CCCCN)NC(=O)[C@H](CC(C)C)NC(=O)CNC(=O)[C@H](Cc2ccccc2)NC(=O)[C@H](Cc2c[nH]cn2)NC(=O)[C@@H](NC(=O)[C@@H](N)CCSC)CSSC[C@@H](C(=O)N[C@@H](Cc2ccc(O)cc2)C(=O)N[C@@H](Cc2c[nH]cn2)C(N)=O)NC(=O)[C@H](CO)NC1=O [compound 28] (H-MCHFGLKLDRISCYH-NH2; disulfide 2-13) | < 5 µM | – |
| CC[C@H](C)[C@@H]1NC(=O)[C@H](CCCNC(=N)N)NC(=O)[C@H](CC(=O)O)NC(=O)[C@H](CC(C)C)NC(=O)[C@H](CCCCN)NC(=O)[C@H](CC(C)C)NC(=O)CNC(=O)[C@H](Cc2ccc(Cl)cc2)NC(=O)[C@H](Cc2c[nH]cn2)NC(=O)[C@@H](NC(=O)[C@@H](N)CCSC)CSSC[C@@H](C(N)=O)NC(=O)[C@H](CO)NC1=O [compound 29] | < 15 µM | – |
| CC[C@H](C)[C@@H]1NC(=O)[C@H](CCCNC(=N)N)NC(=O)[C@H](CC(=O)O)NC(=O)[C@H](CC(C)C)NC(=O)[C@H](CCCCN)NC(=O)[C@H](CC(C)C)NC(=O)CNC(=O)[C@H](Cc2ccccc2)NC(=O)CCCNC(=O)[C@@H](NC(=O)[C@@H](N)CCSC)CSSC[C@@H](C(N)=O)NC(=O)[C@H](CO)NC1=O [compound 32] | < 15 µM | – |
| CC[C@H](C)[C@@H]1NC(=O)[C@H](CCCNC(=N)N)NC(=O)[C@H](CC(=O)O)NC(=O)[C@H](CC(C)C)NC(=O)[C@H](CCCCN)NC(=O)[C@H](CC(C)C)NC(=O)[C@@H](C)NC(=O)[C@H](Cc2ccccc2)NC(=O)CNC(=O)[C@@H](NC(=O)[C@@H](N)CCSC)CSSC[C@@H](C(N)=O)NC(=O)[C@H](CO)NC1=O [compound 34] (H-MCGF[dA]LKLDRISC-NH2; disulfide 2-13) | < 5 µM | – |
| CC[C@H](C)[C@@H]1NC(=O)[C@H](CCCNC(=N)N)NC(=O)[C@H](CC(=O)O)NC(=O)[C@H](CC(C)C)NC(=O)[C@H](CCCCN)NC(=O)[C@H](CC(C)C)NC(=O)[C@@H](C)NC(=O)[C@H](Cc2ccccc2)NC(=O)[C@@H](Cc2c[nH]cn2)NC(=O)[C@@H](NC(=O)[C@@H](N)CCSC)CSSC[C@@H](C(N)=O)NC(=O)[C@H](CO)NC1=O [compound 35] | < 5 µM | – |
| CC[C@H](C)[C@@H]1NC(=O)[C@H](CCCNC(=N)N)NC(=O)[C@H](CC(=O)O)NC(=O)[C@H](CC(C)C)NC(=O)[C@H](CCCCN)NC(=O)[C@H](CC(C)C)NC(=O)CNC(=O)[C@H](Cc2ccccc2)NC(=O)[C@H]2CCCN2C(=O)[C@@H](NC(=O)[C@@H](N)CCSC)CSSC[C@@H](C(N)=O)NC(=O)[C@H](CO)NC1=O [compound 37] | < 5 µM | – |
| CC[C@H](C)[C@@H]1NC(=O)[C@H](CCCNC(=N)N)NC(=O)[C@H](CC(=O)O)NC(=O)[C@H](CC(C)C)NC(=O)[C@H](CCCCN)NC(=O)[C@H](CC(C)C)NC(=O)CNC(=O)[C@H](Cc2ccccc2)NC(=O)[C@@H](C)NC(=O)[C@@H](NC(=O)[C@@H](N)CCSC)CSSC[C@@H](C(N)=O)NC(=O)[C@H](CO)NC1=O [compound 38] | < 5 µM | – |
| CC[C@H](C)[C@@H]1NC(=O)[C@H](CCCNC(=N)N)NC(=O)[C@H](CC(=O)O)NC(=O)[C@H](CC(C)C)NC(=O)[C@H](CCCCN)NC(=O)[C@H](CC(C)C)NC(=O)CNC(=O)[C@H](Cc2ccccc2)NC(=O)[C@@H](CO)NC(=O)[C@@H](NC(=O)[C@@H](N)CCSC)CSSC[C@@H](C(N)=O)NC(=O)[C@H](CO)NC1=O [compound 39] | < 5 µM | – |
| CC[C@H](C)[C@@H]1NC(=O)[C@H](CCCNC(=N)N)NC(=O)[C@H](CC(=O)O)NC(=O)[C@H](CC(C)C)NC(=O)[C@H](CCCCN)NC(=O)[C@H](CC(C)C)NC(=O)CNC(=O)[C@H](Cc2ccccc2)NC(=O)[C@@H](CC(N)=O)NC(=O)[C@@H](NC(=O)[C@@H](N)CCSC)CSSC[C@@H](C(N)=O)NC(=O)[C@H](CO)NC1=O [compound 40] | < 5 µM | – |
| CC[C@H](C)[C@@H]1NC(=O)[C@H](CCCNC(=N)N)NC(=O)[C@H](CC(=O)O)NC(=O)[C@H](CC(C)C)NC(=O)[C@@H]2CCCN2C(=O)[C@H](CC(C)C)NC(=O)CNC(=O)[C@H](Cc2ccccc2)NC(=O)[C@@H](Cc2c[nH]cn2)NC(=O)[C@@H](NC(=O)[C@@H](N)CCSC)CSSC[C@@H](C(N)=O)NC(=O)[C@H](CO)NC1=O [compound 41] (H-MC[dH]FGLPLDRISC-NH2; disulfide 2-13) | – | < 5 µM |
| CC[C@H](C)[C@@H]1NC(=O)[C@H](CCCNC(=N)N)NC(=O)[C@H](CC(=O)O)NC(=O)[C@H](CC(C)C)NC(=O)[C@H](CCCNC(=N)N)NC(=O)[C@H](CC(C)C)NC(=O)CNC(=O)[C@H](Cc2ccccc2)NC(=O)[C@@H](Cc2c[nH]cn2)NC(=O)[C@@H](NC(=O)[C@@H](N)CCSC)CSSC[C@@H](C(N)=O)NC(=O)[C@H](CO)NC1=O [compound 42] (H-MC[dH]FGLRLDRISC-NH2; disulfide 2-13) | < 5 µM | – |
